Test systems include HCT-116 colon; OVCAR-5 ovarian; HT29 colon; M14 melanoma; LOX IMVI melanoma; OVCAR-8 ovarian; SNB-19 CNS; SF-295 CNS; TK-10 renal.
What all share (assay): DTP human tumour cell line panel, 48 h

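Protocol summary: plate cells (96-well), add compound at 5 concentrations, incubate 48 h, interpolate endpoints linearly. Here, GI50 denotes the concentration required for 50% inhibition of growth. Definition used: TGI = concentration required for complete inhibition of growth.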

`CC(=O)OC1COC(n2c(=S)n(-c3ccccc3)c(=O)c3cc(Br)ccc32)C(OC(C)=O)C1OC(C)=O` (stereo not given): the TGI in the test with HCT-116 colon, in the test on OVCAR-5 ovarian, with HT29 colon, with M14 melanoma, in the test on LOX IMVI melanoma and with OVCAR-8 ovarian was more than 100 µM throughout. The TGI was 77.3 µM with SNB-19 CNS and more than 100 µM with SF-295 CNS.
With `C=CCOC(=O)CC[N+]1=CCC(c2ccccc2)(c2ccccc2)O1`, the TGI in the test on HCT-116 colon, in the test with OVCAR-5 ovarian, in the test with HT29 colon, with M14 melanoma, in the test with TK-10 renal and in the test with OVCAR-8 ovarian was more than 100 µM throughout. The TGI in the test with SNB-19 CNS and in the test with SF-295 CNS was more than 100 µM each time.
For the compound `C=CCC1[C@@H](C(C)(C)C(C(C)=O)C(=O)C(=O)OC)OC(C(C)(C)C)N1C(=O)OC` (stereo not given in full), the TGI in the test with HCT-116 colon, with OVCAR-5 ovarian, in the test on HT29 colon, in the test with M14 melanoma, in the test on TK-10 renal and in the test on OVCAR-8 ovarian was more than 100 µM in each case. Moreover, the TGI in the test with SNB-19 CNS and in the test with SF-295 CNS was more than 100 µM throughout.
For `COc1cc2cnc3c4ccccc4ccc3c2cc1OC`, the TGI in the test with OVCAR-5 ovarian, in the test with HT29 colon, in the test on M14 melanoma, with TK-10 renal, in the test with OVCAR-8 ovarian and with SNB-19 CNS was more than 100 µM each time. In addition, in the test with SF-295 CNS, the TGI is more than 100 µM.
As for `O=c1ncccn1C1C=C(CO)C(O)C1O` (stereo not given), the TGI in the test on OVCAR-5 ovarian, in the test with HT29 colon, with M14 melanoma, in the test on TK-10 renal, with LOX IMVI melanoma and in the test on SNB-19 CNS was more than 50 µM each time. In the test with SF-295 CNS, this compound returned a TGI of more than 50 µM.
Regarding `CSc1c(C)c(C)nn1-c1ccccc1`, the TGI in the test with OVCAR-5 ovarian, with HT29 colon, in the test with M14 melanoma, in the test on TK-10 renal, with LOX IMVI melanoma and with OVCAR-8 ovarian was more than 100 µM in each case. For the same compound, the TGI in the test on SNB-19 CNS and in the test on SF-295 CNS was more than 100 µM throughout.
Consider `Cn1cc(-c2csc(-c3cn(C)c4ccccc34)n2)c2cnccc21`, for which the GI50 in the test on HCT-116 colon was 0.925 µM; in the test on OVCAR-5 ovarian, 1.77 µM; with HT29 colon, 1.98 µM; in the test with M14 melanoma it was 1.51 µM; with TK-10 renal it was 2.25 µM; in the test on OVCAR-8 ovarian it was 2.68 µM. For the same compound, the results for the GI50 with SNB-19 CNS and in the test on SF-295 CNS were 1.76 µM and 1.63 µM, respectively. Also, the TGI in the test on HCT-116 colon amounted to 2.19 µM; with OVCAR-5 ovarian, 3.25 µM; with HT29 colon it was 3.71 µM; with M14 melanoma it was 2.96 µM; in the test on TK-10 renal, 4.18 µM; with OVCAR-8 ovarian, 6.7 µM. For the same compound, the TGI in the test on SNB-19 CNS came out at 3.28 µM; with SF-295 CNS, 3.07 µM.
Take `C[C@H]1[C@H](C)CC[C@]2(C(=O)NCCNCCN)CC[C@]3(C)C(=CC[C@@H]4[C@@]5(C)CCC(=O)C(C)(C)[C@@H]5CC[C@]43C)[C@H]12`: the GI50 in the test on HCT-116 colon was 1.71 µM; with OVCAR-5 ovarian, 2.9 µM; in the test with M14 melanoma, 1.79 µM; with TK-10 renal, 1.84 µM; in the test with LOX IMVI melanoma it was 1.71 µM; in the test on SNB-19 CNS, 1.67 µM. Further, the TGI in the test on HCT-116 colon was determined as 3.18 µM; in the test with OVCAR-5 ovarian, 11.3 µM; in the test on M14 melanoma, 3.41 µM; with TK-10 renal, 3.75 µM; in the test with LOX IMVI melanoma, 3.13 µM; in the test with SNB-19 CNS, 3.11 µM.
For `O=C(O)CCC(NC(=S)S)C(=O)O.[Na+].[Zn+2]` (stereo not given), the GI50 in the test with HCT-116 colon, in the test with OVCAR-5 ovarian, with HT29 colon, with M14 melanoma, with TK-10 renal and with LOX IMVI melanoma was more than 50 µM each time. Moreover, the GI50 in the test on OVCAR-8 ovarian and in the test with SNB-19 CNS was more than 50 µM each time. The TGI in the test with HCT-116 colon, in the test with OVCAR-5 ovarian, in the test on HT29 colon, in the test with M14 melanoma, in the test on TK-10 renal and in the test on LOX IMVI melanoma was more than 50 µM throughout. Besides, the TGI in the test with OVCAR-8 ovarian and in the test on SNB-19 CNS was more than 50 µM each time.
For the compound `O=c1c2c3c(sc2n2c(-c4cc(-c5ccccc5)nn4-c4ccccc4)nnc2n1Cc1ccccc1)CCCC3`, the GI50 in the test with OVCAR-5 ovarian, with TK-10 renal, with LOX IMVI melanoma, in the test with SNB-19 CNS and in the test on SF-295 CNS was more than 100 µM throughout. In addition, the TGI in the test with OVCAR-5 ovarian, in the test with TK-10 renal, in the test with LOX IMVI melanoma, with SNB-19 CNS and in the test on SF-295 CNS was more than 100 µM in each case.

The record behind these values is PubChem BioAssay (NCI).
